Earlier results as cited in patent US5998440A, “Azetidine, pyrrolidine and piperidine derivatives” (Merck Sharpe & Dohme Ltd., priority 1995, dated 1999).

Conditions: humans, therapeutic doses

Structure (SMILES): CNS(=O)(=O)Cc1ccc2[nH]cc(CCN(C)C)c2c1 [sumatriptan]
- adverse cardiovascular events: certain adverse cardiovascular events
